Results from US9458181B2, “Cathepsin cysteine protease inhibitors” (Merck Sharp & Dohme Corp., priority 2013, dated 2016).

Legend:
human cathepsin F = molecular target: T1, human cathepsin F (Homo sapiens, UniProt Q9UBX1); assay: Cathepsin F assay (hCat F); type: biochemical; conditions: human cathepsin F 10 nM, Z-Phe-Arg-AMC 8 μM, pH 5.5, 15 min preincubation; read-out: hCat F IP
T1 sequence (Q9UBX1 271-484): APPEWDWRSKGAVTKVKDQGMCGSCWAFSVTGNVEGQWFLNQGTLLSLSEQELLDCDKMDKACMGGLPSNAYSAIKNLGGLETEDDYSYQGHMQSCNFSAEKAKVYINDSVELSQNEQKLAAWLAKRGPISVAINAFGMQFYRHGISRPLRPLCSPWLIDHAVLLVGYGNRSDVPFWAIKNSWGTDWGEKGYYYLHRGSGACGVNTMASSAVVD
Method in brief: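 Human cathepsin F (10 nM) in 50 mM MES pH 5.5, 2.5 mM EDTA, 2.5 mM DTT, 10% DMSO was preincubated 15 min at RT with compounds from a ⅓ DMSO dilution series (500–0.025 μM stocks). Z-Phe-Arg-AMC was added (8 μM as added), and AMC release was read by fluorescence (360/460 nm) for 20 min. Percent inhibition was fitted to a dose-response model.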

human cathepsin K = human cathepsin K (UniProt P43236); assay: Cathepsin K Assay (hrbCat K); type: biochemical; conditions: human cathepsin K 0.4 nM, Z-Leu-Arg-AMC 8 μM, pH 5.5, 15 min preincubation; read-out: hrbCat K IP
Method in brief: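 Human cathepsin K (0.4 nM) in pH 5.5 MES buffer with EDTA, DTT and 10% DMSO was preincubated 15 min at room temperature with compound from a ⅓ dilution series (500-0.025 μM DMSO stocks). Z-Leu-Arg-AMC (8 μM) was then added, and AMC release was followed fluorometrically (Ex 360/Em 460 nm) for 30 min; inhibition was fitted to a dose-response model.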

| Structure (SMILES) | IC50 (human cathepsin F) [nM] | IC50 (human cathepsin K) [nM] |
| --- | --- | --- |
| N#CC1(NC(=O)[C@@H]2CC(F)(F)CC[C@H]2c2sc(CC(F)(F)F)nc2-c2ccc(N3CCS(=O)(=O)CC3)cc2)CC1 [Example 57, (1R,2R)-N-(1-cyanocyclopropyl)-2-(4-(4-(1,1-dioxidothiomorpholino)phenyl)-2-(2,2,2-trifluoroethyl)thiazol-5-yl)-5,5-difluorocyclohexane-carboxamide] | 93 | 0.58 |
| N#CC1(NC(=O)[C@@H]2CCCC[C@H]2c2oc(-c3ccc(F)c(F)c3)nc2-c2ccc(N3CCS(=O)(=O)CC3)cc2)CC1 [Example 1, (1R,2R)—N-(1-Cyanocyclopropyl)-2-(2-(3,4-difluorophenyl)-4-(4-(1,1-dioxidothiomorpholino)phenyl)oxazol-5-yl)cyclohexanecarboxamide] | 573 | 0.39 |
| N#CC1(NC(=O)[C@@H]2CCCC[C@H]2c2oc(-c3cccnn3)nc2-c2ccc(N3CCS(=O)(=O)CC3)cc2)CC1 [Example 97, (1R,2R)-N-(1-cyanocyclopropyl)-2-(4-(4-(1,1-dioxidothiomorpholino)phenyl)-2-(pyridazin-3-yl)oxazol-5-yl)cyclohexanecarboxamide] | 2550 | 2.83 |
| N#CC1(NC(=O)[C@@H]2CCCC[C@H]2c2oc(-c3cc(F)cc(F)c3)nc2-c2ccc(N3CCS(=O)(=O)CC3)cc2)CC1 [Example 34, (1R,2R)-N-(1-cyanocyclopropyl)-2-(2-(3,5-difluorophenyl)-4-(4-(1,1-dioxidothiomorpholino)phenyl)oxazol-5-yl) cyclohexanecarboxamide] | 442 | 0.85 |
| N#CC1(NC(=O)[C@@H]2CCCC[C@H]2c2oc(-c3cccc(F)c3)nc2-c2ccc(N3CCS(=O)(=O)CC3)cc2)CC1 [Example 62, (1R,2R)-N-(1-cyanocyclopropyl)-2-(4-(4-(1,1-dioxidothiomorpholino)phenyl)-2-(3-fluorophenyl)oxazol-5-yl)cyclohexanecarboxamide] | 492 | 0.92 |
| Cc1nc(-c2ccc(C(=O)N3CCOCC3)cc2)c([C@@H]2CCCC[C@H]2C(=O)NC2(C#N)CC2)o1 [Example 22, (1R,2R)-N-(1-cyanocyclopropyl)-2-(2-methyl-4-(4-(morpholine-4-carbonyl)phenyl)oxazol-5-yl)cyclohexanecarboxamide] | 6160 | 5.09 |
| N#CC1(NC(=O)[C@@H]2CCCC[C@H]2c2oc(-c3cncc(Cl)c3)nc2-c2ccc(N3CCS(=O)(=O)CC3)cc2)CC1 [Example 95, (1R,2R)-2-(2-(5-chloropyridin-3-yl)-4-(4-(1,1-dioxidothiomorpholino)phenyl)oxazol-5-yl)-N-(1-cyanocyclopropyl) cyclohexanecarboxamide] | 775 | 1.17 |
| Cc1nc(-c2ccc(C(=O)NC3(C#N)CC3)cc2)c([C@@H]2CCCC[C@H]2C(=O)NC2(C#N)CC2)o1 [Example 21, N-(1-cyanocyclopropyl)-4-(5-((1R,2R)-2-((1-cyanocyclopropyl)carbamoyl)cyclohexyl)-2-methyloxazol-4-yl)benzamide] | ≥ 10000 | 61.9 |
| N#CC1(NC(=O)[C@@H]2CC(F)(F)CC[C@H]2c2oc(CC(F)(F)F)nc2-c2ccc(N3CCS(=O)(=O)CC3)cc2)CC1 [Example 16, (1R,2R)-N-(1-cyanocyclopropyl)-2-(4-(4-(1,1-dioxidothiomorpholino)phenyl)-2-(2,2,2-trifluoroethyl)oxazol-5-yl)-5,5-difluorocyclohexane-carboxamide] | 209 | 0.61 |
| CC(C)(C)c1nc(-c2ccc(N3CCS(=O)(=O)CC3)cc2)c([C@@H]2CCC(F)(F)C[C@H]2C(=O)NC2(C#N)CC2)s1 [Example 58, (1R,2R)-2-(2-(tert-butyl)-4-(4-(1,1-dioxidothiomorpholino)phenyl)thiazol-5-yl)-N-(1-cyanocyclopropyl)-5,5-difluorocyclohexane-carboxamide] | 72 | 0.67 |

The remaining lines, values ahead:

| IC50 (human cathepsin F) [nM] | IC50 (human cathepsin K) [nM] | Structure (SMILES) |
| --- | --- | --- |
| ≥ 10000 | 9740 | CC(C)(O)C(C#N)NC(=O)[C@@H]1CCCC[C@H]1c1oc(-c2ccc(F)cc2)nc1-c1ccc(N2CCS(=O)(=O)CC2)cc1 (single isomer, unassigned) [Example 158, (1R,2R)-N-((R or S)-1-cyano-2-hydroxy-2-methylpropyl)-2-(4-(4-(1,1-dioxidothiomorpholino)phenyl)-2-(4-fluorophenyl)oxazol-5-yl)cyclohexanecarboxamide] |
| 14 | 0.65 | N#CC(CC(F)(F)F)NC(=O)[C@@H]1CCCC[C@H]1c1oc(-c2ccc(F)cc2)nc1-c1ccc(N2CCS(=O)(=O)CC2)cc1 (single isomer, unassigned) [Example 131, (1R,2R)-N-((R or S)-1-cyano-3,3,3-trifluoropropyl)-2-(4-(4-(1,1-dioxidothiomorpholino)phenyl)-2-(4-fluorophenyl)oxazol-5-yl)cyclohexanecarboxamide] |
| 1500 | 1.7 | N#CC1(NC(=O)[C@@H]2CCCC[C@H]2c2oc(C3CC4CCC(C3)C4(F)F)nc2-c2ccc(N3CCS(=O)(=O)CC3)cc2)CC1 (mixture of isomers) [Example 109, (1R,2R)-N-(1-cyanocyclopropyl)-2-(2-((1R,3R,5S and 1R,3S,5S)-8,8-difluorobicyclo[3.2.1]octan-3-yl)-4-(4-(1,1-dioxidothiomorpholino)phenyl)oxazol-5-yl)cyclohexanecarboxamide] |
| 70 | 1.25 | N#CC1(NC(=O)[C@@H]2CCCC[C@H]2c2oc(C(F)(F)c3ccccc3)nc2-c2ccc(N3CCS(=O)(=O)CC3)cc2)CC1 [Example 130, (1R,2R)-N-(1-cyanocyclopropyl)-2-(2-(difluoro(phenyl)methyl)-4-(4-(1,1-dioxidothiomorpholino)phenyl)oxazol-5-yl)cyclohexanecarboxamide] |
| ≥ 10000 | 4.7 | N#CC1(NC(=O)[C@@H]2CCC(F)(F)C[C@H]2c2oc(C(F)(F)C(F)(F)F)nc2-c2ccc(N3CCS(=O)(=O)CC3)cc2)CC1 [Example 150, (1R,2R)-N-(1-cyanocyclopropyl)-2-(4-(4-(1,1-dioxidothiomorpholino)phenyl)-2-(perfluoroethyl)oxazol-5-yl)-4,4-difluorocyclohexane-carboxamide] |
| 2450 | 4.21 | CC1(C)C(c2nc(-c3ccc(N4CCS(=O)(=O)CC4)cc3)c([C@@H]3CCCC[C@H]3C(=O)NC3(C#N)CC3)o2)C1(C)C [Example 113, (1R,2R)-N-(1-cyanocyclopropyl)-2-(4-(4-(1,1-dioxidothiomorpholino)phenyl)-2-(2,2,3,3-tetramethylcyclopropyl)oxazol-5-yl)cyclohexanecarboxamide] |
| 126 | 0.73 | N#CCNC(=O)[C@@H]1CCCC[C@H]1c1oc(-c2ccc(F)cc2)nc1-c1ccc(N2CCS(=O)(=O)CC2)cc1 [Example 112, (1R,2R)-N-(cyanomethyl)-2-(4-(4-(1,1-dioxidothiomorpholino)phenyl)-2-(4-fluorophenyl)oxazol-5-yl)cyclohexanecarboxamide] |
| ≥ 10000 | 48.5 | N#C[C@H](NC(=O)[C@@H]1CCCC[C@H]1c1oc(-c2ccc(F)cc2)nc1-c1ccc(N2CCS(=O)(=O)CC2)cc1)C1CCOCC1 [Example 127, (1R,2R)-N-((R)-cyano(tetrahydro-2H-pyran-4-yl)methyl)-2-(4-(4-(1,1-dioxidothiomorpholino)phenyl)-2-(4-fluorophenyl)oxazol-5-yl)cyclohexanecarboxamide] |
| 352 | 1.92 | N#CC1(NC(=O)[C@@H]2C[C@@H](F)CC[C@H]2c2oc(C(F)(F)F)nc2-c2ccc(N3CCS(=O)(=O)CC3)cc2)CC1 [Example 146, (1R,2R,5S)-N-(1-cyanocyclopropyl)-2-(4-(4-(1,1-dioxidothiomorpholino)phenyl)-2-(trifluoromethyl)oxazol-5-yl)-5-fluorocyclohexane-carboxamide] |
| 210 | 0.67 | N#CC1(NC(=O)[C@@H]2CCCC[C@H]2c2oc(-c3ccc(F)cc3)nc2-c2ccc(N3CCS(=O)(=O)CC3)cc2)COC1 [Example 153, (1R,2R)-N-(3-cyanooxetan-3-yl)-2-(4-(4-(1,1-dioxidothiomorpholino)phenyl)-2-(4-fluorophenyl)oxazol-5-yl)cyclohexanecarboxamide] |
| 9020 | 14.6 | CCC(C#N)NC(=O)[C@@H]1CCCC[C@H]1c1oc(-c2ccc(F)cc2)nc1-c1ccc(N2CCS(=O)(=O)CC2)cc1 (single isomer, unassigned) [Example 126, (1R,2R)-N-((R or S)-1-cyanopropyl)-2-(4-(4-(1,1-dioxidothiomorpholino)phenyl)-2-(4-fluorophenyl)oxazol-5-yl)cyclohexanecarboxamide] |
| 692 | 1.94 | N#C[C@@H](NC(=O)[C@@H]1CCCC[C@H]1c1oc(-c2ccc(F)cc2)nc1-c1ccc(N2CCS(=O)(=O)CC2)cc1)C1CCOCC1 [Example 128, (1R,2R)-N-((S)-cyano(tetrahydro-2H-pyran-4-yl)methyl)-2-(4-(4-(1,1-dioxidothiomorpholino)phenyl)-2-(4-fluorophenyl)oxazol-5-yl)cyclohexanecarboxamide] |
